Test results taken from patent US10351915B2 (Berg LLC, priority 2009, dated 2019).

How the values were obtained:
SCC cells = assay: Real-time PCR Diabetes Array; type: cell-based
Description: The control cells were untreated cells.

PaCa-2 cells = assay: Extracellular acidification rate (ECAR), SeaHorse XF analyzer; type: cell-based; details: normoxia, high glucose
Protocol: (SeaHorse Biosciences Inc, North Billerica, Mass.).
In contrast to normal cells, cancer cells are phenotypically primed to use high glucose for ATP generation (enhanced glycolysis) resulting in higher ECAR (Table 129, ECAR for untreated normoxia 17 mM) at 21 mpH/min. […] The associated decrease in OCR in these cells was likely associated with increased efficiency of the mitochondrial OXPHOS.

[1] = tested on: Pyruvate Dehydrogenase beta (PDH-E1); assay: Western blot, Pyruvate Dehydrogenase Beta levels; type: cell-based, human
Protocol: The pyruvate kinase blots were stripped by incubating for 30 minutes with methanol, followed by two 10 minute washes with TBS-T, then 30 minutes of incubation with Stripping buffer at 50 deg C., and followed by two washes with 100 ml or more of TBS-T for 30′ each. The 2 blots were scanned in laser scanner to check for complete stripping. After making sure stripping of the antibody and the ECF reagent has worked, the blots were activated with methanol for 5 seconds, washed with water for 5 minutes, and TBST for 15 minutes. The blots are blocked for 1 hour with 5% blocking reagent in TBS-T at room temperature and then washed 3 times with TBS-T (1×-15′; 2×5′ each) and probed with the antibody for Pyruvate Dehydrogenase in 5% BSA (ABNOVA catalog # H00005162-M03) at 1:500 dilutions) overnight at 4 deg C. with shaking. After the overnight incubation with primary antibody for Pyruvate Dehydrogenase, the membranes were washed 3 times with TBS-T (1×-15′; 2×5′ each) and probed with the secondary antibody (antimouse; 1:10,000 dilution) for 1 h on the orbital tilting shaker at room temperature. […]
The levels of LDH and PDH were determined by probing the blots successively with primary antibodies for LDH and PDH, essentially as described above. […]

Bcl2 = Bcl2 level after CoQ-10 in the presence of VEGF; type: cell-based; details: normal fibroblast, co-administration with VEGF

COC1=C(OC)C(=O)C(C/C=C(\C)CC/C=C(\C)CC/C=C(\C)CC/C=C(\C)CC/C=C(\C)CC/C=C(\C)CC/C=C(\C)CC/C=C(\C)CC/C=C(\C)CCC=C(C)C)=C(C)C1=O [Q10, Coenzyme Q10]
Regulation (mRNA) (SCC cells; 100 μM Q10, at 6 and 24 hours): Down regulated at 6 and 24 | Regulation (mRNA) (SCC cells; 100 μM Q10, at 6 hours): Down regulated at 6 hours. | ECAR rates (PaCa-2 cells): significant decrease in ECAR rates | Pyruvate Dehydrogenase Beta Normalized Volume (48 h) ([1]; HepG2, 5g glucose, 48 h, amount 50): 123 | Pyruvate Dehydrogenase Beta Normalized Volume (24 h) ([1]; HepG2, 22G glucose, 24 h, amount 100): 340 | levels of Bcl2 (Bcl2): no effect on the levels of Bcl2
